Source: patent US7087634B2, “Cyclic AMP-specific phosphodiesterase inhibitors” (ICOS Corporation, priority 1999, dated 2006)

Legend:
Assay type in all cases: biochemical
PDE1A = target: T1, PDE1A (Homo sapiens, UniProt P54750); assay: Inhibition of PDE1A
T1 construct: Plasmid pBB-PDE1A3/6 contained the complete open reading frame of PDE1A3; made in house; host or cells: Sf9 (baculovirus)

PDE7 = target: T2, PDE7 (Homo sapiens, UniProt Q13946); assay: Inhibition of PDE7
T2 construct: made in house; host or cells: Saccharomyces cerevisiae BJ2-54
Method: (§1) Recombinant production of human PDE1B, PDE2, PDE4A, PDE4B, PDE4C, PDE4D, PDE5, and PDE7 was carried out similarly to that described in Example 7 of U.S. Pat. No. 5,702,936, incorporated herein by reference, except that the yeast transformation vector employed, which is derived from the basic ADH2 plasmid described in Price et al., Methods in Enzymology, 185, pp. 308–318 (1990), incorporated yeast ADH2 promoter and terminator sequences and the Saccharomyces cerevisiae host was the protease-deficient strain BJ2–54 deposited on Aug. 31, 1998 with the American Type Culture Collection, Manassas, Va., under accession number ATCC 74465. Transformed host cells were grown in 2×SC-leu medium, pH 6.2, with trace metals, and vitamins. After 24 hours, YEP medium-containing glycerol was added to a final concentration of 2×YET/3% glycerol. […]
(§2) Phosphodiesterase activity of the preparations was determined as follows. […] The [32P]5′-AMP or [32P]5′-GMP then was quantitatively converted to free [32P]phosphate and unlabeled adenosine or guanosine by the action of snake venom 5′-nucleotidase. […] PDE enzyme was present in quantities that yield <30% total hydrolysis of substrate (linear assay conditions). […] After centrifugation (750×g for 3 minutes) to sediment the charcoal, a sample of the supernatant was taken for radioactivity determination in a scintillation counter and the PDE activity was calculated. […]

PDE2 = target: T3, PDE2 (Homo sapiens, UniProt O00408); assay: Inhibition of PDE2
T3 construct: made in house; host or cells: Saccharomyces cerevisiae strain YI34
Method: as §1, §2

T3 sequence (O00408 whole entry): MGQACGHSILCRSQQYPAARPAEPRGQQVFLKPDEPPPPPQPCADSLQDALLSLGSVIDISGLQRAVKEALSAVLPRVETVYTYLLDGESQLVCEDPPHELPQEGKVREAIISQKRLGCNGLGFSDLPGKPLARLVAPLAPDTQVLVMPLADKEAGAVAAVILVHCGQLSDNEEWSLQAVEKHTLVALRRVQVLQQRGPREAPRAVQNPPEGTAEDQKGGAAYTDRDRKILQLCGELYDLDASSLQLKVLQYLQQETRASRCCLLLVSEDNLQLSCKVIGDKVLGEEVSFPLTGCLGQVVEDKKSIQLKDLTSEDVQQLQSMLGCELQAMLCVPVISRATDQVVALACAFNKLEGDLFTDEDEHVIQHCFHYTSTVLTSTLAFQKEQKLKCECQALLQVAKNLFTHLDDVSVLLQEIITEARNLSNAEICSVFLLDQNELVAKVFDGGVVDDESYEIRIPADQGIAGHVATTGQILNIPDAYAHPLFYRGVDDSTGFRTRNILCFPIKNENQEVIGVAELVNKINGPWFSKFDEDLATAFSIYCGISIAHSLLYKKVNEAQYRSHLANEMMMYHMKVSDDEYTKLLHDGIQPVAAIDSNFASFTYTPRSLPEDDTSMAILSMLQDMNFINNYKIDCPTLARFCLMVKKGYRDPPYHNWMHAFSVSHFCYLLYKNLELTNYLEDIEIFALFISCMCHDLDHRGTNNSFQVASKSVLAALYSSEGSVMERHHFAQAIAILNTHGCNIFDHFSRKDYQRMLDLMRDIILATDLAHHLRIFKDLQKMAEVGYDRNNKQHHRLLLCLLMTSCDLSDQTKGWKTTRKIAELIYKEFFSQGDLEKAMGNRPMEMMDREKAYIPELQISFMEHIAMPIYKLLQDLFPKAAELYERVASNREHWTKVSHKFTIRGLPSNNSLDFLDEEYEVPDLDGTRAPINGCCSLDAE
T2 sequence (Q13946 whole entry): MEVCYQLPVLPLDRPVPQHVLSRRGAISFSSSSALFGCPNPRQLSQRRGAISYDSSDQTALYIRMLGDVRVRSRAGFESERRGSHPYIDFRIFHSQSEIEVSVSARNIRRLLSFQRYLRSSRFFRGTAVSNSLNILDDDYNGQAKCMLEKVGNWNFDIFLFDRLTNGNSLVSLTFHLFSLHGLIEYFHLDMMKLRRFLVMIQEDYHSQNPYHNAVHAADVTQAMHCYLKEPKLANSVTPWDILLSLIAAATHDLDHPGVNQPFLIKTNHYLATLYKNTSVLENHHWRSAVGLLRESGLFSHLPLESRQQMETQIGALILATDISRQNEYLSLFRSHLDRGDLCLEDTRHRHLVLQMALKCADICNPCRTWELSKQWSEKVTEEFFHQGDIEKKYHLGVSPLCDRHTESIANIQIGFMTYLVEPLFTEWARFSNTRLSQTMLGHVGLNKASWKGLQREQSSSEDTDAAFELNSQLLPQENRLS

## CCOC(=O)c1c(C)nn(-c2cccc([N+](=O)[O-])c2)c1C [Example 2, 3,5-dimethyl-1-(3-nitrophenyl)-1H-pyrazole-4-carboxylic acid ethyl ester]
PDE1A
  IC50: 25.1 µM
PDE7
  IC50: 39 µM
PDE2
  IC50: 21.8 µM
